Measurements published in the Kinase Knowledgebase extract (Sharma et al. 2016).

Molecular target: EGFR (human) (UniProt P00533)
Sequence (P00533 whole entry, looked up): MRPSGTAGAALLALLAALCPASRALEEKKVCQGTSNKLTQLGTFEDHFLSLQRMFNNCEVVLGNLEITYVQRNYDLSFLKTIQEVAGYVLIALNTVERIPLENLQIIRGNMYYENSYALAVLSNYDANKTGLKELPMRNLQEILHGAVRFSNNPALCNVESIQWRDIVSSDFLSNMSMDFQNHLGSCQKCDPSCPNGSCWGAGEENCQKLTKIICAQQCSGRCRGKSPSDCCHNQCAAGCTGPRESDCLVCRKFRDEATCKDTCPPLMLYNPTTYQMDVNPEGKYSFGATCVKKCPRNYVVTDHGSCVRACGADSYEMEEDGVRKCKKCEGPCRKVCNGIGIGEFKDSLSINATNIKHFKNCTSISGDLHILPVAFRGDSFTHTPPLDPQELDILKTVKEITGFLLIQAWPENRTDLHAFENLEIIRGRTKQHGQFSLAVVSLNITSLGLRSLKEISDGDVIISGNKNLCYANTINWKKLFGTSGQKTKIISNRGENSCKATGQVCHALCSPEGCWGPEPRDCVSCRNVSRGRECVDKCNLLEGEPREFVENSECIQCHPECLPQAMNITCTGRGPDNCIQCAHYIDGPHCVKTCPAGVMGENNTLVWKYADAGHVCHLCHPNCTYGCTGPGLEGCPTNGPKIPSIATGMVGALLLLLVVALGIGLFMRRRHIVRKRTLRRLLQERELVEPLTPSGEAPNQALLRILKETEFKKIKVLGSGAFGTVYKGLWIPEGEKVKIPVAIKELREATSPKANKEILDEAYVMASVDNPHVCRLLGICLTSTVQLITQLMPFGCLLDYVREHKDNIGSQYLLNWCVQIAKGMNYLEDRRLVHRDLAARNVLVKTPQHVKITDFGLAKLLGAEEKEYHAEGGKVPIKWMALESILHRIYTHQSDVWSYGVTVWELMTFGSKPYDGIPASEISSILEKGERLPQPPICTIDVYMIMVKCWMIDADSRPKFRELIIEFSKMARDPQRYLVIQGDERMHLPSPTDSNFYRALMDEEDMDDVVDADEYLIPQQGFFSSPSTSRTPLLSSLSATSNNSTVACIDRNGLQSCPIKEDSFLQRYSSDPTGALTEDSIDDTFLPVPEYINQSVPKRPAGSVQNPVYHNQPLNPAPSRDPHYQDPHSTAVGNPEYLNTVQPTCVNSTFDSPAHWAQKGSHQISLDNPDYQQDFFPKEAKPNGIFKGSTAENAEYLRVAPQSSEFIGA

IC50 [nM]	SMILES
< 100	CN(C)CCOc1ccc(Nc2nccc(-c3sc(-c4ccc(O)cc4)nc3-c3cccc(NC(=O)c4c(F)cccc4F)c3)n2)cc1Cl
< 100	Cc1cccc(C(=O)Nc2cccc(-c3nc(C)sc3-c3ccnc(Nc4ccc(OCCN(C)C)c(Cl)c4)n3)c2)c1
< 100	O=C(Nc1cccc(-c2nc(CO)sc2-c2ccnc(Nc3ccc(OCCN4CCCC4)c(F)c3)n2)c1)c1c(F)cccc1F
< 100	Nc1nc(-c2cccc(NC(=O)C3CCCCC3)c2)c(-c2ccnc(Nc3cccc(-c4cnco4)c3)n2)s1
< 100	COc1ccc(Nc2nccc(-c3scnc3-c3cccc(NC(=O)Cc4cccs4)c3)n2)cc1OCCN(C)C
< 100	COc1ccccc1C(=O)Nc1cccc(-c2nc(C)sc2-c2ccnc(Nc3ccc4c(c3)CN(C)CC4)n2)c1
< 100	CN(C)CCOc1ccc(Nc2nccc(-c3sc(NCCCN4CCOCC4)nc3-c3cccc(NC(=O)c4c(F)cccc4F)c3)n2)cc1Cl
< 100	COc1ccc(Nc2nccc(-c3sc(N)nc3-c3cccc(NC(=O)c4c(F)cccc4F)c3)n2)cc1F
< 100	CN(C)c1nc(-c2cccc(NC(=O)c3c(F)cccc3F)c2)c(-c2ccnc(Nc3ccc(OCCN4CCCC4)nc3)n2)s1
< 100	CCc1nc(-c2cccc(NC(=O)c3c(F)cccc3F)c2)c(-c2ccnc(Nc3ccc(OCCN(C)C)c(F)c3)n2)s1
< 100	CN1CCc2ccc(Nc3nccc(-c4sc(N5CCCC5)nc4-c4cccc(NC(=O)c5c(F)cccc5F)c4)n3)cc2C1
< 100	CN(C)CCOc1ccc(Nc2nccc(-c3sc(N4CCCCC4)nc3-c3cccc(NC(=O)c4c(F)cccc4F)c3)n2)cc1Cl
< 100	O=C(Cc1cccs1)Nc1cccc(-c2ncsc2-c2ccnc(Nc3ccc4c(c3)NC(=O)CO4)n2)c1
< 100	COc1ccc(Nc2nccc(-c3sc(N)nc3-c3cccc(NC(=O)c4c(F)cccc4F)c3)n2)cc1N1CCNCC1
< 100	O=C(Nc1cccc(-c2nc(NC3CC3)sc2-c2ccnc(Nc3ccc(OCCN4CCCC4)c(F)c3)n2)c1)c1c(F)cccc1F
< 100	CCc1nc(-c2cccc(NC(=O)c3c(F)cccc3F)c2)c(-c2ccnc(Nc3cccc(CN4CCCC4)c3)n2)s1
< 100	CCN(CC)CCOc1cccc(Nc2nccc(-c3scnc3-c3cccc(NC(=O)Cc4cccs4)c3)n2)c1
< 100	COc1ccc(Nc2nccc(-c3sc(NC4CC4)nc3-c3cccc(NC(=O)c4c(F)cccc4F)c3)n2)cc1OCCN(C)C
< 100	CN(C)CCOc1ccc(Nc2nccc(-c3sc(N)nc3-c3ccc(F)c(NC(=O)c4c(F)cccc4F)c3)n2)cc1Cl
< 100	CN(C)CCOc1ccc(Nc2nccc(-c3sc(NS(=O)(=O)CC(F)(F)F)nc3-c3cccc(NC(=O)c4c(F)cccc4F)c3)n2)cc1
< 100	COCCNc1nc(-c2cccc(NC(=O)c3c(F)cccc3F)c2)c(-c2ccnc(Nc3ccc(OCCN4CCCC4)c(Cl)c3)n2)s1
< 100	O=C(Nc1cccc(-c2ncsc2-c2ccnc(Nc3cccc(CN4CCCC4)c3)n2)c1)c1c(F)cccc1F
< 100	Nc1nc(-c2cccc(C(=O)Nc3c(F)cccc3F)c2)c(-c2ccnc(Nc3cccc(CN4CCCC4)c3)n2)s1
< 100	COc1ccc(Nc2nccc(-c3sc(N)nc3-c3cccc(NC(=O)c4c(F)cccc4F)c3)n2)cc1OCCN(C)C
< 100	NS(=O)(=O)CCc1cccc(Nc2nccc(-c3scnc3-c3cccc(NC(=O)c4c(F)cccc4F)c3)n2)c1
< 100	Nc1nc(-c2cccc(NC(=O)c3c(F)cccc3F)c2)c(-c2ccnc(Nc3ccc4c(c3)OCC(=O)N4)n2)s1
< 100	Nc1nc(-c2cccc(NC(=O)C3CCCCC3)c2)c(-c2ccnc(Nc3ccc4c(c3)CNCC4)n2)s1
< 100	CC(C)c1nc(-c2cccc(NC(=O)c3c(F)cccc3F)c2)c(-c2ccnc(Nc3ccc(OCCN4CCCC4)c(Cl)c3)n2)s1
< 100	O=C(Nc1cccc(-c2nc(CF)sc2-c2ccnc(Nc3ccc(OCCN4CCCC4)c(F)c3)n2)c1)c1c(F)cccc1F
< 100	CCNc1nc(-c2cccc(NC(=O)C3CC3)c2)c(-c2ccnc(Nc3ccc(OCCN4CCCC4)c(Cl)c3)n2)s1
